Reference: patent publication US9113629B2, “4-amino-6-(4-substituted-phenyl)-picolinates and 6-amino-2-(4-substituted-phenyl)-pyrimidine-4-carboxylates and their use as herbicides” (DOW AGROSCIENCES LLC, priority 2013, dated 2015)
Where two headings read alike, the source gives them in different places.

Tests used:
[1] = system: Key Broadleaf Weed and Crop Species; assay: Post-emergent Test II herbicidal activity (Table 5); assay type: in vivo; settings: post-emergence, 336 h, post-emergent, 14 days after application; for pest or weed control at 70 g/ha: 70 g ai/ha; for pest or weed control at 140 g/ha: 140 g ai/ha
Method in brief: (§1)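 Injury was rated visually 14 d after treatment on a 0–100% scale against untreated controls. Test compounds, formulated with crop oil concentrate and surfactant and serially diluted down to 1/16× of the top rate, were applied by track sprayer at 187 L/ha onto first- to second-true-leaf seedlings.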

[2] = system: Key Grass and Sedge Weeds as well as Grass Crops; assay: Post-emergent Test II herbicidal activity (Table 6); assay type: in vivo; settings: post-emergence, 336 h; for pest or weed control at 70 g/ha: application rate 70 g ai/ha; for pest or weed control at 140 g/ha: application rate 140 g ai/ha
Method in brief: as §1

[3] = ABUTH: velvetleaf (Abutilon theophrasti), read-out: Visual Growth Reduction (%) 14 Days After Application ABUTH
[4] = AMARE: redroot pigweed (Amaranthus retroflexus), read-out: Visual Growth Reduction (%) 14 Days After Application AMARE
[5] = BRSNN: oilseed-rape, canola (Brassica napus), read-out: Visual Growth Reduction (%) 14 Days After Application BRSNN
[6] = CHEAL: lambsquarters (Chenopodium album), read-out: Visual Growth Reduction (%) 14 Days After Application CHEAL
[7] = EPHHL: wild poinsettia (Euphorbia heterophylla), read-out: Visual Growth Reduction (%) 14 Days After Application EPHHL
[8] = HELAN: sunflower (Helianthus annuus), read-out: Visual Growth Reduction (%) 14 Days After Application HELAN
[9] = VIOTR: wild pansy (Viola tricolor), read-out: Visual Growth Reduction (%) 14 Days After Application VIOTR
[10] = Triticum aestivum, TRZSS (wheat), read-out: Visual Growth Reduction (%) 14 Days After Application, TRZSS
[11] = CYPES: yellow nutsedge (Cyperus esculentus), read-out: Visual Growth Reduction (%) 14 Days After Application, CYPES
[12] = DIGSA: crabgrass (Digitaria sanguinalis), read-out: Visual Growth Reduction (%) 14 Days After Application, DIGSA
[13] = ECHCG: barnyardgrass (Echinochloa crus-galli), read-out: Visual Growth Reduction (%) 14 Days After Application, ECHCG
[14] = ORYSA: rice (Oryza sativa), read-out: Visual Growth Reduction (%) 14 Days After Application, ORYSA
[15] = SETFA: giant foxtail (Setaria faberi), read-out: Visual Growth Reduction (%) 14 Days After Application, SETFA
[16] = SORVU: grain sorghum (Sorghum vulgare), read-out: Visual Growth Reduction (%) 14 Days After Application, SORVU
[17] = ZEAMX: maize, corn (Zea mays), read-out: Visual Growth Reduction (%) 14 Days After Application, ZEAMX

Compound | pest or weed control at 70 g/ha [1, 3] | pest or weed control at 140 g/ha [1, 3] | pest or weed control at 70 g/ha [1, 4] | pest or weed control at 140 g/ha [1, 4] | pest or weed control at 70 g/ha [1, 5] | pest or weed control at 140 g/ha [1, 5] | pest or weed control at 70 g/ha [1, 6] | pest or weed control at 140 g/ha [1, 6] | pest or weed control at 70 g/ha [1, 7] | pest or weed control at 140 g/ha [1, 7] | pest or weed control at 70 g/ha [1, 8] | pest or weed control at 140 g/ha [1, 8] | pest or weed control at 70 g/ha [1, 9] | pest or weed control at 140 g/ha [1, 9] | pest or weed control at 70 g/ha [2, 10] | pest or weed control at 140 g/ha [2, 10] | pest or weed control at 70 g/ha [2, 11] | pest or weed control at 140 g/ha [2, 11] | pest or weed control at 70 g/ha [2, 12] | pest or weed control at 140 g/ha [2, 12] | further results
COC(=O)c1nc(-c2ccc(C#N)cc2)c(C)c(N)c1Cl [Compound 83, Methyl 4-amino-3-chloro-6-(4-cyanophenyl)-5-methylpicolinate] | 0 to 29% | 30 to 44% | 0 to 29% | 0 to 29% | 0 to 29% | 0 to 29% | 0 to 29% | 0 to 29% | 0 to 29% | 0 to 29% | 85 to 94% | 85 to 94% | 0 to 29% | 0 to 29% | 0 to 29% | 0 to 29% | 0 to 29% | 0 to 29% | 0 to 29% | 0 to 29% | pest or weed control at 70 g/ha [2, 13]: 0 to 29%; pest or weed control at 140 g/ha [2, 13]: 0 to 29%; pest or weed control at 70 g/ha [2, 14]: 0 to 29%; pest or weed control at 140 g/ha [2, 14]: 0 to 29%; pest or weed control at 70 g/ha [2, 15]: 0 to 29%; pest or weed control at 140 g/ha [2, 15]: 0 to 29%; pest or weed control at 70 g/ha [2, 16]: 0 to 29%; pest or weed control at 140 g/ha [2, 16]: 0 to 29%; pest or weed control at 70 g/ha [2, 17]: 0 to 29%; pest or weed control at 140 g/ha [2, 17]: 0 to 29%; melting point: 145 to 148 °C
COc1c(N)nc(-c2cc(F)c(I)cc2F)nc1C(=O)O [Compound 119] | 75 to 84% | 85 to 94% | 85 to 94% | 95 to 100% | 95 to 100% | 95 to 100% | 95 to 100% | 95 to 100% | 95 to 100% | 95 to 100% | 85 to 94% | 85 to 94% | 0 to 29% | 0 to 29% | 45 to 59% | 60 to 74% | 45 to 59% | 45 to 59% | 45 to 59% | 60 to 74% | pest or weed control at 70 g/ha [2, 13]: 85 to 94%; pest or weed control at 140 g/ha [2, 13]: 85 to 94%; pest or weed control at 70 g/ha [2, 14]: 0 to 29%; pest or weed control at 140 g/ha [2, 14]: 0 to 29%; pest or weed control at 70 g/ha [2, 15]: 60 to 74%; pest or weed control at 140 g/ha [2, 15]: 60 to 74%; pest or weed control at 70 g/ha [2, 16]: 60 to 74%; pest or weed control at 140 g/ha [2, 16]: 60 to 74%; pest or weed control at 70 g/ha [2, 17]: 60 to 74%; pest or weed control at 140 g/ha [2, 17]: 60 to 74%; melting point: 131 to 132 °C
Nc1cc(-c2ccc(I)cc2F)nc(C(=O)O)c1Cl [Compound 124] | 85 to 94% | 85 to 94% | 95 to 100% | 95 to 100% | 95 to 100% | 95 to 100% | 95 to 100% | 95 to 100% | 95 to 100% | 95 to 100% | 85 to 94% | 85 to 94% | 95 to 100% | 95 to 100% | 45 to 59% | 60 to 74% | 95 to 100% | 95 to 100% | 75 to 84% | 85 to 94% | pest or weed control at 70 g/ha [2, 13]: 85 to 94%; pest or weed control at 140 g/ha [2, 13]: 85 to 94%; pest or weed control at 70 g/ha [2, 14]: 30 to 44%; pest or weed control at 140 g/ha [2, 14]: 30 to 44%; pest or weed control at 70 g/ha [2, 15]: 60 to 74%; pest or weed control at 140 g/ha [2, 15]: 95 to 100%; pest or weed control at 70 g/ha [2, 16]: 95 to 100%; pest or weed control at 140 g/ha [2, 16]: 95 to 100%; pest or weed control at 70 g/ha [2, 17]: 75 to 84%; pest or weed control at 140 g/ha [2, 17]: 75 to 84%; melting point: 208.4 to 210.2 °C
COC(=O)c1nc(-c2cc(F)c(I)cc2F)c(Br)c(N)c1Cl [Compound 100] | 85 to 94% | 85 to 94% | 85 to 94% | 95 to 100% | 60 to 74% | 60 to 74% | 95 to 100% | 95 to 100% | 45 to 59% | 45 to 59% | 85 to 94% | 85 to 94% | 0 to 29% | 0 to 29% | 30 to 44% | 60 to 74% | 0 to 29% | 0 to 29% | 45 to 59% | 60 to 74% | pest or weed control at 70 g/ha [2, 13]: 0 to 29%; pest or weed control at 140 g/ha [2, 13]: 0 to 29%; pest or weed control at 70 g/ha [2, 14]: 0 to 29%; pest or weed control at 140 g/ha [2, 14]: 0 to 29%; pest or weed control at 70 g/ha [2, 15]: 0 to 29%; pest or weed control at 140 g/ha [2, 15]: 0 to 29%; pest or weed control at 70 g/ha [2, 16]: 0 to 29%; pest or weed control at 140 g/ha [2, 16]: 0 to 29%; pest or weed control at 70 g/ha [2, 17]: 0 to 29%; pest or weed control at 140 g/ha [2, 17]: 45 to 59%; melting point: 145 to 147 °C
